Patent publication US20100267561A1, “HERBICIDAL PYRIDAZINONE DERIVATIVES” (priority 2007, published 2010)

How the values were obtained:
Experiment in all cases: Test B pre-/postemergence plant response
Format in all cases: in vivo
[1] = system: Italian ryegrass (Lolium multiflorum)
Method in brief: (§1)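 Seeds were sown and sprayed preemergence, while plants at 2 to 18 cm (1- to 4-leaf stage) got postemergence sprays. Compounds were formulated in a non-phytotoxic solvent mixture with surfactant. After 13 to 15 days in a greenhouse, injury was rated visually against untreated controls, 0 (no effect) to 100 (complete control).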

[2] = system: johnsongrass (Sorghum halepense)
Method in brief: as §1

[3] = system: eastern black (E.B.) nightshade (Solanum ptycanthum); details: Preemergence
Method in brief: as §1

[4] = system: lambsquarters (Chenopodium album)
Method in brief: as §1

[5] = system: pigweed (Amaranthus retroflexus)
Method in brief: as §1

[6] = system: common ragweed (Ambrosia elation)
Method in brief: as §1

[7] = system: blackgrass (Alopecurus myosuroides); details: for Blackgrass plant response rating: preemergence, 0-100 scale
Method in brief: as §1

kochia (Kochia scoparia) = system: kochia (Kochia scoparia)
Method in brief: as §1

[8] = system: catchweed bedstraw (Galium aparine); details: Preemergence
Method in brief: as §1

soybean (Glycine max) = system: soybean (Glycine max)
Method in brief: as §1

[9] = system: giant foxtail (Setaria faberii)
Method in brief: as §1

[10] = system: goosegrass (Eleusine indica)
Method in brief: as §1

[11] = system: woolly cupgrass (Eriochloa villosa)
Method in brief: as §1

[12] = Preemergence, 31 g ai/ha, 0 to 100 scale, 0 no effect, 100 complete control
[13] = Preemergence, 62 g ai/ha, scale 0 to 100
[14] = Preemergence, 125 g ai/ha, scale 0 to 100
[15] = Preemergence, 250 g ai/ha, scale 0 to 100
[16] = 31 g ai/ha, 0 to 100 scale, 0 no effect, 100 complete control
[17] = Postemergence, 31 g ai/ha, scale 0 to 100, 0 no effect, 100 complete control
[18] = Postemergence, 62 g ai/ha, scale 0 to 100
[19] = Postemergence, 125 g ai/ha, scale 0 to 100
[20] = Postemergence, 250 g ai/ha, scale 0 to 100

## Cc1cc(-c2ccc(C(F)(F)F)cc2)nn1-c1c(OC(=O)C(C)(C)C)cnn(C)c1=O [Compound 2]
[1]; [12]
  Plant response rating, Ryegrass, Italian: 75
[1]; [13]
  Plant response rating, Ryegrass, Italian: 100
[1]; [14]
  Plant response rating, Ryegrass, Italian: 100
[1]; [15]
  Plant response rating, Ryegrass, Italian: 100
[2]; [13]
  Plant response rating, Johnsongrass: 80
[2]; [15]
  Plant response rating, Johnsongrass: 80
[3]; [16]
  Plant response rating, Nightshade, E. B.: 0
[3]; 62 g ai/ha, scale 0 to 100
  Plant response rating, Nightshade, E. B.: 0
[3]; 125 g ai/ha, scale 0 to 100
  Plant response rating, Nightshade, E. B.: 0
[3]; 250 g ai/ha, scale 0 to 100
  Plant response rating, Nightshade, E. B.: 0
[4]; [12]
  Plant response rating, Lambsquarters: 0
[4]; [13]
  Plant response rating, Lambsquarters: 0
[4]; [14]
  Plant response rating, Lambsquarters: 0
[4]; [15]
  Plant response rating, Lambsquarters: 30
[5]; [12]
  Plant response rating, Pigweed: 0
[5]; [13]
  Plant response rating, Pigweed: 0
[5]; [14]
  Plant response rating, Pigweed: 70
[5]; [15]
  Plant response rating, Pigweed: 70
[6]; [12]
  Plant response rating, Ragweed: 0
[6]; [13]
  Plant response rating, Ragweed: 0
[6]; [14]
  Plant response rating, Ragweed: 0
[6]; [15]
  Plant response rating, Ragweed: 0
[7]; 250 g ai/ha
  Blackgrass plant response rating: 100
[7]; [12]
  Plant response rating, Blackgrass: 60
[7]; [13]
  Plant response rating, Blackgrass: 80
[7]; [14]
  Plant response rating, Blackgrass: 100
Kochia (Kochia scoparia); [12]
  Plant response rating, Kochia: 0
Kochia (Kochia scoparia); [13]
  Plant response rating, Kochia: 0
Kochia (Kochia scoparia); [14]
  Plant response rating, Kochia: 0
Kochia (Kochia scoparia); [15]
  Plant response rating, Kochia: 50
[8]; [16]
  Plant response rating, Galium: 100
[8]; 62 g ai/ha, scale 0 to 100
  Plant response rating, Galium: 100
[8]; 250 g ai/ha, scale 0 to 100
  Plant response rating, Galium: 100
Soybean (Glycine max); [12]
  Plant response rating, Soybean: 0
Soybean (Glycine max); [13]
  Plant response rating, Soybean: 0
Soybean (Glycine max); [14]
  Plant response rating, Soybean: 0
Soybean (Glycine max); [15]
  Plant response rating, Soybean: 0
[9]; [12]
  Plant response rating, Foxtail, Giant: 100
[9]; [13]
  Plant response rating, Foxtail, Giant: 100
[9]; [14]
  Plant response rating, Foxtail, Giant: 100
[9]; [15]
  Plant response rating, Foxtail, Giant: 100
[10]; [12]
  Plant response rating, Goosegrass: 50
[10]; [13]
  Plant response rating, Goosegrass: 60
[10]; [14]
  Plant response rating, Goosegrass: 95
[10]; [15]
  Plant response rating, Goosegrass: 95
[11]; [12]
  Plant response rating, Cupgrass, Woolly: 70
[11]; [13]
  Plant response rating, Cupgrass, Woolly: 80
[11]; [14]
  Plant response rating, Cupgrass, Woolly: 80
[11]; [15]
  Plant response rating, Cupgrass, Woolly: 100

## Cc1cc(-c2ccc(Br)cc2)nn1-c1c(O)cnn(C)c1=O [Compound 4]
[1]; [17]
  Plant response rating, Ryegrass, Italian: 100
[1]; [18]
  Plant response rating, Ryegrass, Italian: 100
[1]; [19]
  Plant response rating, Ryegrass, Italian: 100
[1]; [20]
  Plant response rating, Ryegrass, Italian: 100
[1]; [12]
  Plant response rating, Ryegrass, Italian: 100
[1]; [13]
  Plant response rating, Ryegrass, Italian: 100
[1]; [14]
  Plant response rating, Ryegrass, Italian: 100
[1]; [15]
  Plant response rating, Ryegrass, Italian: 100
[2]; [17]
  Plant response rating, Johnsongrass: 80
[2]; [19]
  Plant response rating, Johnsongrass: 100
[2]; [12]
  Plant response rating, Johnsongrass: 0
[2]; [13]
  Plant response rating, Johnsongrass: 30
[2]; [14]
  Plant response rating, Johnsongrass: 100
[2]; [15]
  Plant response rating, Johnsongrass: 100
[3]; 250 g ai/ha, scale 0 to 100
  Plant response rating, Nightshade, E. B.: 80
[4]; [17]
  Plant response rating, Lambsquarters: 0
[4]; [18]
  Plant response rating, Lambsquarters: 0
[4]; [19]
  Plant response rating, Lambsquarters: 60
[4]; [20]
  Plant response rating, Lambsquarters: 80
[4]; [13]
  Plant response rating, Lambsquarters: 85
[4]; [14]
  Plant response rating, Lambsquarters: 85
[4]; [15]
  Plant response rating, Lambsquarters: 90
[5]; [17]
  Plant response rating, Pigweed: 0
[5]; [18]
  Plant response rating, Pigweed: 0
[5]; [19]
  Plant response rating, Pigweed: 35
[5]; [20]
  Plant response rating, Pigweed: 50
[5]; [15]
  Plant response rating, Pigweed: 0
[6]; [17]
  Plant response rating, Ragweed: 0
[6]; [18]
  Plant response rating, Ragweed: 0
[6]; [19]
  Plant response rating, Ragweed: 50
[6]; [20]
  Plant response rating, Ragweed: 80
[6]; [12]
  Plant response rating, Ragweed: 0
[6]; [13]
  Plant response rating, Ragweed: 0
[6]; [14]
  Plant response rating, Ragweed: 0
[6]; [15]
  Plant response rating, Ragweed: 0
[7]; 250 g ai/ha
  Blackgrass plant response rating: 100
[7]; [17]
  Plant response rating, Blackgrass: 90
[7]; [18]
  Plant response rating, Blackgrass: 100
[7]; [19]
  Plant response rating, Blackgrass: 100
[7]; [20]
  Plant response rating, Blackgrass: 100
[7]; [12]
  Plant response rating, Blackgrass: 100
[7]; [13]
  Plant response rating, Blackgrass: 100
[7]; [14]
  Plant response rating, Blackgrass: 100
Kochia (Kochia scoparia); [17]
  Plant response rating, Kochia: 0
Kochia (Kochia scoparia); [18]
  Plant response rating, Kochia: 0
Kochia (Kochia scoparia); [19]
  Plant response rating, Kochia: 60
Kochia (Kochia scoparia); [20]
  Plant response rating, Kochia: 70
Kochia (Kochia scoparia); [12]
  Plant response rating, Kochia: 0
Kochia (Kochia scoparia); [14]
  Plant response rating, Kochia: 0
Kochia (Kochia scoparia); [15]
  Plant response rating, Kochia: 0
[8]; [16]
  Plant response rating, Galium: 0
[8]; 62 g ai/ha, scale 0 to 100
  Plant response rating, Galium: 0
[8]; 125 g ai/ha, scale 0 to 100
  Plant response rating, Galium: 85
[8]; 250 g ai/ha, scale 0 to 100
  Plant response rating, Galium: 90
Soybean (Glycine max); [17]
  Plant response rating, Soybean: 20
Soybean (Glycine max); [18]
  Plant response rating, Soybean: 30
Soybean (Glycine max); [19]
  Plant response rating, Soybean: 90
Soybean (Glycine max); [20]
  Plant response rating, Soybean: 90
Soybean (Glycine max); [12]
  Plant response rating, Soybean: 0
Soybean (Glycine max); [13]
  Plant response rating, Soybean: 0
Soybean (Glycine max); [14]
  Plant response rating, Soybean: 0
Soybean (Glycine max); [15]
  Plant response rating, Soybean: 20
[9]; [17]
  Plant response rating, Foxtail, Giant: 100
[9]; [18]
  Plant response rating, Foxtail, Giant: 100
[9]; [19]
  Plant response rating, Foxtail, Giant: 100
[9]; [20]
  Plant response rating, Foxtail, Giant: 100
[9]; [12]
  Plant response rating, Foxtail, Giant: 100
[9]; [13]
  Plant response rating, Foxtail, Giant: 100
[9]; [14]
  Plant response rating, Foxtail, Giant: 100
[9]; [15]
  Plant response rating, Foxtail, Giant: 100
[10]; [17]
  Plant response rating, Goosegrass: 95
[10]; [18]
  Plant response rating, Goosegrass: 100
[10]; [19]
  Plant response rating, Goosegrass: 100
[10]; [20]
  Plant response rating, Goosegrass: 100
[10]; [12]
  Plant response rating, Goosegrass: 85
[10]; [13]
  Plant response rating, Goosegrass: 100
[10]; [14]
  Plant response rating, Goosegrass: 100
[10]; [15]
  Plant response rating, Goosegrass: 100
[11]; [17]
  Plant response rating, Cupgrass, Woolly: 100
[11]; [18]
  Plant response rating, Cupgrass, Woolly: 100
[11]; [19]
  Plant response rating, Cupgrass, Woolly: 100
[11]; [20]
  Plant response rating, Cupgrass, Woolly: 100
[11]; [12]
  Plant response rating, Cupgrass, Woolly: 85
[11]; [13]
  Plant response rating, Cupgrass, Woolly: 85
[11]; [14]
  Plant response rating, Cupgrass, Woolly: 100
[11]; [15]
  Plant response rating, Cupgrass, Woolly: 100
